Source: patent US6218398A, “Nocathiacin antibiotics” (Bristol-Myers Squibb Company, priority 1999, dated 2001)
Converted amounts (≈) assume the structure as drawn.

Key:
Escherichia coli A15119 = experiment: MIC by conventional serial broth dilution assay; assay type: cell-based
[1] = system: Streptococcus pneumoniae A9585; experiment: MIC by conventional serial broth dilution assay; assay type: cell-based
[2] = system: Staphylococcus aureus/QC/ATCC#29213 A24407; experiment: MIC by conventional serial broth dilution assay; assay type: cell-based; conditions: ATCC29213
[3] = system: Haemophilus influenzae/β-lactamase negative A20191; experiment: MIC by conventional serial broth dilution assay; assay type: cell-based
[4] = system: Enterococcus faecalis A20688; experiment: MIC by conventional serial broth dilution assay; assay type: cell-based
[5] = system: Streptococcus pyogenes A9604; experiment: MIC by conventional serial broth dilution assay; assay type: cell-based
[6] = system: Enterococcus faecium A24885; experiment: MIC by conventional serial broth dilution assay; assay type: cell-based
Bacillus subtilis A9506A = experiment: MIC by conventional serial broth dilution assay; assay type: cell-based
[7] = system: Enterococcus avium A27456; experiment: MIC by conventional serial broth dilution assay; assay type: cell-based
[8] = system: Moraxella catarrhalis/β-lactamase positive A25409; experiment: MIC by conventional serial broth dilution assay; assay type: cell-based
[9] = system: Staphylococcus aureus A9537; experiment: MIC by conventional serial broth dilution assay; assay type: cell-based
[10] = system: Escherichia coli/AcrA::Kan A28901; experiment: MIC by conventional serial broth dilution assay; assay type: cell-based
[11] = system: Streptococcus pneumoniae/penicillin resistant A28272; experiment: MIC by conventional serial broth dilution assay; assay type: cell-based
[12] = system: Streptococcus pneumoniae/penicillin intermediate A27881; experiment: MIC by conventional serial broth dilution assay; assay type: cell-based
[13] = system: Enterococcus faecalis A27519; experiment: MIC by conventional serial broth dilution assay; assay type: cell-based
[14] = system: Enterococcus faecium/thiostrepton resistant (10 ug/ml) SC15829; experiment: MIC by conventional serial broth dilution assay; assay type: cell-based
[15] = system: Staphylococcus aureus/hetero methicillin resistant A27218; experiment: MIC by conventional serial broth dilution assay; assay type: cell-based
[16] = system: Staphylococcus aureus/homo methicillin resistant A27223; experiment: MIC by conventional serial broth dilution assay; assay type: cell-based
[17] = system: Haemophilus influenzae/β-lactamase negative A20183; experiment: MIC by conventional serial broth dilution assay; assay type: cell-based
[18] = system: Moraxella catarrhalis/β-lactamase positive A22344; experiment: MIC by conventional serial broth dilution assay; assay type: cell-based
Salmonella/RE A27208 = experiment: MIC by conventional serial broth dilution assay; assay type: cell-based
Micrococcus luteus A9852 = experiment: MIC by conventional serial broth dilution assay; assay type: cell-based
[19] = system: Staphylococcus aureus A15090; experiment: systemic Staph. aureus infection model in mice; assay type: in vivo, female ICR mice infected with Staphylococcus aureus; conditions: subcutaneous
Procedure: Nocathiacin I was evaluated for antibiotic activity in vivo, in a systemic infection model using female ICR mice. The animals were infected IP with 6.5×10^6 CFU of an overnight culture of Staphylococcus aureus A15090 suspended in 7% mucin. Nocathiacin I was dissolved in a test formulation consisting of 10% DMSO, 5% Tween 80 and 85% water. The solution was administered subcutaneously at 100 mg/kg total dose (2×50 mg/kg doses at 1 and 4 hours post-infection). […] The PD50 of nocathiacin I was determined to be <6.25 mg/kg.

Salmonella/WT A27207 = experiment: MIC by conventional serial broth dilution assay; assay type: cell-based
[20] = system: Haemophilus influenzae/β-lactamase positive A21515; experiment: MIC by conventional serial broth dilution assay; assay type: cell-based
[21] = system: Staphylococcus haemolyticus A27298; experiment: MIC by conventional serial broth dilution assay; assay type: cell-based
Gram-positive bacteria = experiment: in vitro activity against Gram-positive bacteria; assay type: cell-based; conditions: e.g. multiple drug resistant Enterococcus faecium
Escherichia coli A22292 = experiment: MIC by conventional serial broth dilution assay; assay type: cell-based
[22] = system: Salmonella enteritidis A9531; experiment: MIC by conventional serial broth dilution assay; assay type: cell-based; conditions: Salmonella enterica
[23] = system: Staphylococcus epidermidis A24548; experiment: MIC by conventional serial broth dilution assay; assay type: cell-based
[24] = system: Staphylococcus aureus/β-lactamase positive A15090; experiment: MIC by conventional serial broth dilution assay; assay type: cell-based

## C=C(NC(=O)c1csc(-c2nc3c(cc2O)-c2nc(cs2)C(=O)NC(C(C)O)C(=O)NC(=C(C)OC)c2nc(cs2)C(=O)NC2c4nc(cs4)C(=O)NC(COC(=O)c4c5c6c(cccc6n4O)COC(=O)C(OC4CC(C)(O)C(N(C)C)C(C)O4)C2OC5)c2nc-3cs2)n1)C(N)=O (stereo not shown) [Nocathiacin I]
Escherichia coli A15119
  MIC: > 128 µg/mL
[1]
  MIC: 0.001 µg/mL (≈ 0.000696 µM)
[2]
  MIC: 0.007 µg/mL (≈ 0.00487 µM)
[3]
  MIC: > 128 µg/mL
[4]; A20688
  MIC: 0.03 µg/mL (≈ 0.0209 µM)
[4]; A20688, + 50% calf serum
  MIC: 0.25 µg/mL
[5]
  MIC: 0.001 µg/mL (≈ 0.000696 µM)
[6]
  MIC: 0.015 µg/mL (≈ 0.0104 µM)
Bacillus subtilis A9506A
  MIC: 0.001 µg/mL (≈ 0.000696 µM)
[7]
  MIC: 0.015 µg/mL (≈ 0.0104 µM)
[8]
  MIC: 0.06 µg/mL (≈ 0.0417 µM)
[9]
  MIC: 0.001 µg/mL (≈ 0.000696 µM)
[10]
  MIC: > 128 µg/mL
[11]
  MIC: 0.001 µg/mL (≈ 0.000696 µM)
[12]
  MIC: 0.001 µg/mL (≈ 0.000696 µM)
[13]
  MIC: 0.03 µg/mL (≈ 0.0209 µM)
[14]
  MIC: 0.125 µg/mL (≈ 0.087 µM)
[15]; + 50% calf serum
  MIC: 0.007 µg/mL
[15]; hetero methicillin resistant
  MIC: 0.003 µg/mL (≈ 0.00209 µM)
[16]; + 50% calf serum
  MIC: 0.001 µg/mL
[16]; homo methicillin resistant
  MIC: 0.003 µg/mL (≈ 0.00209 µM)
[17]
  MIC: > 128 µg/mL
[18]
  MIC: 0.06 µg/mL (≈ 0.0417 µM)
Salmonella/RE A27208
  MIC: > 128 µg/mL
Micrococcus luteus A9852
  MIC: 0.003 µg/mL (≈ 0.00209 µM)
[19]; Staphylococcus aureus, A15090, sc, systemic infection model, female ICR mice, read-out: PD50
  ED50: < 6.25 mg/kg
[19]; 100 mg/kg total dose (2×50 mg/kg at 1 and 4 hours post-infection)
  signs of toxicity: no signs of toxicity
[19]; 100 mg/kg total dose (2×50 mg/kg at 1 and 4 hours post-infection), IP infection 6.5×10^6 CFU
  animals survived the duration of the experiment: Nine out of nine
Salmonella/WT A27207
  MIC: > 128 µg/mL
[20]
  MIC: > 128 µg/mL
[21]
  MIC: 0.03 µg/mL (≈ 0.0209 µM)
Gram-positive bacteria
  inhibitory activity against Gram-positive bacteria: inhibitory activity at the nanomolar level
Escherichia coli A22292
  MIC: > 128 µg/mL
[22]
  MIC: > 128 µg/mL
[23]
  MIC: 0.003 µg/mL (≈ 0.00209 µM)
[24]; + 50% calf serum
  MIC: 0.015 µg/mL
[24]; β-lactamase positive
  MIC: 0.007 µg/mL (≈ 0.00487 µM)
